Our source for the IC50 values is patent US11492341B2, “ACLY inhibitors and uses thereof” (Nimbus Artemis, Inc., priority 2018, dated 2022).

Some results are limits rather than exact numbers.

ACL, sequence (P53396 whole entry, species assumed): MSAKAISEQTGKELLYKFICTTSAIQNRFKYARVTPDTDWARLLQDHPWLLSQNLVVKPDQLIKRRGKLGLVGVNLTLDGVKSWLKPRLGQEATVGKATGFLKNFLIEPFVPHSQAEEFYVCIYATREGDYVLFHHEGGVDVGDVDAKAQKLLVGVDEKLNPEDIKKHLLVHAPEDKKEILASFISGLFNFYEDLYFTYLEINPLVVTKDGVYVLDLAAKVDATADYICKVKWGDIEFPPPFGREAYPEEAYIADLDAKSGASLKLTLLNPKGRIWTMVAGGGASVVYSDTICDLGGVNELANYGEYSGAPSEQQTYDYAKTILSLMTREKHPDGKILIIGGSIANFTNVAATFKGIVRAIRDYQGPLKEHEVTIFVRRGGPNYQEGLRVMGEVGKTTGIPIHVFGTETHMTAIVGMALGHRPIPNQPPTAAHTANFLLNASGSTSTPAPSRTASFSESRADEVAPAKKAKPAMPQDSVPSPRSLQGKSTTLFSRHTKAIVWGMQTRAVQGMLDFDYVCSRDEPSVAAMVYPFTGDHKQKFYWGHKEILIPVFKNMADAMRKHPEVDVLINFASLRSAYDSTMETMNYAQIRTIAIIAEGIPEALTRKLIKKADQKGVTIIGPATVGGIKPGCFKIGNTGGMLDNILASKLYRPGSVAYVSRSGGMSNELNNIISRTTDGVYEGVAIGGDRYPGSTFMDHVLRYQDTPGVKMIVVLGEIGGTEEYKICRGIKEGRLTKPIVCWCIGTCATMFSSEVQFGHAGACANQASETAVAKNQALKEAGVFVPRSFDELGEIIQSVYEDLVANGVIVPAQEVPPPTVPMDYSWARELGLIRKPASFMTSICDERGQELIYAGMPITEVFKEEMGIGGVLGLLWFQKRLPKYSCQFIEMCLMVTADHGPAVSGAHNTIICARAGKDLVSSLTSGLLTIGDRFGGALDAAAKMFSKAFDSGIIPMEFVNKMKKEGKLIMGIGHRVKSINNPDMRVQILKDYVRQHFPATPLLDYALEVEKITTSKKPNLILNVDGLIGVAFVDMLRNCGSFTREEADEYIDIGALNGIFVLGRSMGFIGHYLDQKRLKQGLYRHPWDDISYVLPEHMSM

This assay has as its target ACL (Homo sapiens (Human), UniProt P53396). The experiment in a line: ADP-Glo Assay. It counts as biochemical. As to conditions: 3 nM ACL, 15 μM ATP, 3 μM CoA, 300 μM Citrate. The method, then:
Example 28. ADP-Glo Assay
Compounds of the present invention were evaluated in an ADP-GLO assay as follows: a) Dilute cpd 1:3 in succession in DMSO by hand for each cpds for 12 pts b) Add 0.1 μL diluted cpd solution to assay plate, each dose with 2 replicates c) Centrifuge 1000 RPM for 1 min d) Add 5 μL ACL working solution to 384-well assay plate, centrifuge 1000 RPM for 1 min e) Incubate at 25° C. for 15 min f) Add 5 μL substrate working solution to initiate reaction g) Final ACL reaction concentrations: 3 nM ACL, 15 μM ATP, 3 μM CoA, 300 μM Citrate, 0.01% Brij35, 4 mM DTT, 1% DMSO; h) Reference final conc: 30 uM starting Conc, 3× dilution, 11+0 points. Test cpd conc: 30/100 uM starting Conc, 3× dilution, 11+0 points. i) Incubate at 25° C. for 60 min j) Add 10 μL ADP Glo reagent, centrifuge 1000 RPM for 1 min k) Incubate at 25° C. for 40 min l) Add 20 μL kinase detection reagent, centrifuge 1000 RPM for 1 min m) Incubate at 25° C. for 40 min n) Read on Envision for US LUM as RLU
(In general: ADP-Glo turns the ADP formed in a reaction into a luminescent signal.)
What is called IC50 is the midpoint of a concentration-inhibition curve. High values mean a need for much substance, low ones inhibition by little substance. Take `O=c1[nH]cncc1-c1cc2cc(Cl)ccc2n1S(=O)(=O)c1cc(F)cc(F)c1O` [I-141, 5-(5-chloro-1-((3,5-difluoro-2-hydroxyphenyl)sulfonyl)-1H-indol-2-yl)pyrimidin-4(3H)-one]: the IC50 is 0.5 to 20 µM. In the case of `O=S(=O)(c1cc(F)cc(F)c1O)n1c(-c2ccccn2)cc2cc(Cl)ccc21` [I-95] it was 0.5 to 20 µM.

Compound `O=C(O)c1cc(Cl)c(O)c(S(=O)(=O)n2c(-c3ccccc3)cc3cc(Cl)ccc32)c1` [I-73] returned an IC50 of 0.5 to 20 µM.

Compound `O=S(=O)(c1cc(Br)cc(Cl)c1O)n1c(-c2cncnc2)cc2ccccc21` [I-29, 4-bromo-2-chloro-6-((2-(pyrimidin-5-yl)-1H-indol-1-yl)sulfonyl)phenol] gave an IC50 of 0.5 to 20 µM. The figure for `COc1c(Cl)cc(Br)cc1S(=O)(=O)n1c(-c2ccccc2)cc2cc(Cl)ccc21` [I-107, 1-((5-bromo-3-chloro-2-methoxyphenyl)sulfonyl)-5-chloro-2-phenyl-1H-indole] is not below 20 µM; for `O=C(c1ccc2cc(-c3ccccc3)n(S(=O)(=O)c3cc(Br)cc(Cl)c3O)c2c1)N1CCC1` [I-145, Azetidin-1-yl(1-((5-bromo-3-chloro-2-hydroxyphenyl)sulfonyl)-2-phenyl-1H-indol-6-yl)methanone] it is 0.5 to 20 µM; for `COc1ccc2c(c1)CCN2S(=O)(=O)c1cc(Cl)cc(Cl)c1O` [I-17] it is 0.5 to 20 µM. The compound `O=S(=O)(c1cccc(Cl)c1O)n1c(-c2cncnc2)cc2cc(Cl)ccc21` [I-94] showed an IC50 of 0.5 to 20 µM. In turn, `Cc1ncc(-c2cc3cc(Cl)ccc3n2S(=O)(=O)c2cc(F)cc(F)c2O)cn1` [I-100] displayed an IC50 of 0.5 to 20 µM. Take `O=C(O)c1ccc(-c2cc3cc(Cl)ccc3n2S(=O)(=O)c2cc(Br)cc(Cl)c2O)cc1` [I-45, 4-(1-((5-bromo-3-chloro-2-hydroxyphenyl)sulfonyl)-5-chloro-1H-indol-2-yl)benzoic acid]: the IC50 was in the range of 0.5 to 20 µM.

On to `O=S(=O)(c1cc(Cl)cc(Cl)c1O)N1CC(O)(c2ccc(Cl)cc2)C1` [I-9], for which the IC50 was 0.5 to 20 µM. Consider `O=C(O)c1ccc2cc(-c3ccccc3)n(S(=O)(=O)c3cc(Cl)cc(Br)c3)c2c1` [I-69], for which the IC50 lay within 0.5 to 20 µM. As to `O=C(O)c1ccc2c(c1)cc(-c1ccccc1)n2S(=O)(=O)c1cc(F)cc(F)c1` [I-87], the IC50 fell in the range of 0.5 to 20 µM. In turn, `CN(C)C(=O)c1ccc2cc(-c3ccccc3)n(S(=O)(=O)c3cc(Br)cc(Cl)c3O)c2c1` [I-80] showed a concentration for half-maximal inhibition (IC50) of 0.5 to 20 µM. `O=S(=O)(c1cc(Br)cc(Cl)c1O)N1CCc2ccc(-c3ccccc3)cc21` [I-3, 4-bromo-2-chloro-6-((6-phenylindolin-1-yl)sulfonyl)phenol] registered a half-inhibitory concentration (IC50) of 0.5 to 20 µM. With `Cc1cnc(-c2cc3cc(Cl)ccc3n2S(=O)(=O)c2cc(F)cc(F)c2O)cn1` [I-127], the half-inhibitory concentration (IC50) was 0.5 to 20 µM. Compound `Cc1cc2cc(Cl)c(O)cc2n1S(=O)(=O)c1cc(Br)cc(Cl)c1O` [I-158] displayed a half-inhibitory concentration (IC50) of 0.5 to 20 µM.

In turn, `CCOC(=O)c1cc2cc(Cl)ccc2n1S(=O)(=O)c1ccc(-c2ccccc2)cc1F` [I-164] came in with a concentration for half-maximal inhibition (IC50) not below 20 µM. Turning to `Cc1cncc(-c2cc3cc(Cl)ccc3n2S(=O)(=O)c2cc(F)cc(F)c2O)n1` [I-101], the half-maximal inhibitory concentration (IC50) was 0.5 to 20 µM. Compound `O=C(c1cc2cc(Cl)ccc2n1S(=O)(=O)c1cc(Cl)cc(Cl)c1O)N1CCCCC1` [I-72] gave a 50% inhibitory concentration (IC50) of 0.5 to 20 µM. Regarding `O=S(=O)(c1cc(Br)cc(Cl)c1O)n1ccc2ccc(-c3ccccc3)cc21` [I-4, 4-bromo-2-chloro-6-((6-phenyl-1H-indol-1-yl)sulfonyl)phenol], the concentration for half-maximal inhibition (IC50) lay within 0.5 to 20 µM.

Regarding `COc1ccc(N2CCN(S(=O)(=O)c3cc(Cl)cc(Cl)c3O)CC2)cc1` [I-16], the half-inhibitory concentration (IC50) was 0.5 to 20 µM. Regarding `COC(=O)c1ccc2cc(-c3ccccc3)n(S(=O)(=O)c3cc(Br)cc(Cl)c3O)c2c1` [I-70], the half-inhibitory concentration (IC50) was in the range of 0.5 to 20 µM. The compound `O=c1[nH]cc(Cl)cc1S(=O)(=O)n1c(-c2ccc(OC(F)(F)F)cc2)cc2cc(Cl)ccc21` [I-64, 5-chloro-3-((5-chloro-2-(4-(trifluoromethoxy)phenyl)-1H-indol-1-yl)sulfonyl)pyridin-2(1H)-one] showed an IC50 of 0.5 to 20 µM.
